Among the data in paper doi:10.1101/2020.03.05.979567v1 (biorxiv, 2020) are IC50 and Ki values, retold here.

Assay [1] concerns the target T1, Streptomyces chromofuscus phospholipase D (ScPld) (Streptomyces chromofuscus, UniProt Q8KRU5).
T1 sequence (Q8KRU5 47-556): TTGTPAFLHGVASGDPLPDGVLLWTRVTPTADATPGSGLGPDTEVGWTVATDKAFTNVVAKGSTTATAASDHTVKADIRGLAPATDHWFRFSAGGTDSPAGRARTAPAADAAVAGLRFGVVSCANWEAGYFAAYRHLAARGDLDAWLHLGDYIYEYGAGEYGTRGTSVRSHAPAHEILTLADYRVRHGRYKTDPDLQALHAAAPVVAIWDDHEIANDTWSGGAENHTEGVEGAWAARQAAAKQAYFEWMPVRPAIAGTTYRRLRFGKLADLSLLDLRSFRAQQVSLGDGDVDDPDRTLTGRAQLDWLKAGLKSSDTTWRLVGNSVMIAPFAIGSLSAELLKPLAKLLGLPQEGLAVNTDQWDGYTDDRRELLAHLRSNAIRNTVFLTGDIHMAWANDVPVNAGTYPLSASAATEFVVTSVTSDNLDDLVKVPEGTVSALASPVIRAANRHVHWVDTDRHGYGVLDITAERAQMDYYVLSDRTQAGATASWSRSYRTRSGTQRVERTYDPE
The experiment in a line: PED-A1 hydrolysis, fluorescence. It counts as biochemical.

The target in assay [2] is T2, recombinant mouse Nape-pld (Mus musculus, UniProt Q8BH82).
T2 sequence (Q8BH82 1-396): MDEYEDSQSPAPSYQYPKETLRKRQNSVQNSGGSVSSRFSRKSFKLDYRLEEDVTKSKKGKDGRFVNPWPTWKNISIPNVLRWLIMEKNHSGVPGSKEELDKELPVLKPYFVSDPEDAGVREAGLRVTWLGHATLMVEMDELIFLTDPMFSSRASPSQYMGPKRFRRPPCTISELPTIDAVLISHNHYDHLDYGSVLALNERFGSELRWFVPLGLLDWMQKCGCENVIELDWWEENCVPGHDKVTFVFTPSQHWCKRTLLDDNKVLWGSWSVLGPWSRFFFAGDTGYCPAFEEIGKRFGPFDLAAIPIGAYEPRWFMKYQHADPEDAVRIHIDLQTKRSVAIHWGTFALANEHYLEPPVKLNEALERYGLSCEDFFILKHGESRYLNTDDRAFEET
The experiment in a line: PED-A1 hydrolysis, fluorescence, initial rate. It counts as biochemical.

For assay [3], the target named is T2, recombinant mouse Nape-pld. The experiment in a line: PED-A1 hydrolysis kinetics, fluorescence. It counts as biochemical.
Assay [4] addresses NAPE-PLD (endogenous, HEK293 cells) (Homo sapiens, UniProt Q6IQ20). The experiment in a line: PED-A1 hydrolysis in intact HEK293 cells, fluorescence. Conditions: 30 min preincubation, 3.5 μM PED-A1. The assay is classed as cell-based.
For assay [5], the target named is T2, recombinant mouse Nape-pld. The experiment in a line: biochemical.
Assay [6] concerns the target T2, recombinant mouse Nape-pld. The experiment in a line: biochemical. This is another data set of the same source.
The target in assay [7] is T2, recombinant mouse Nape-pld. The experiment in a line: biochemical. This is another data set of the same source.

Where only a bound is given, the exact number is not on record here.

NAPE-PLD (endogenous, HEK293 cells), sequence (Q6IQ20 whole entry): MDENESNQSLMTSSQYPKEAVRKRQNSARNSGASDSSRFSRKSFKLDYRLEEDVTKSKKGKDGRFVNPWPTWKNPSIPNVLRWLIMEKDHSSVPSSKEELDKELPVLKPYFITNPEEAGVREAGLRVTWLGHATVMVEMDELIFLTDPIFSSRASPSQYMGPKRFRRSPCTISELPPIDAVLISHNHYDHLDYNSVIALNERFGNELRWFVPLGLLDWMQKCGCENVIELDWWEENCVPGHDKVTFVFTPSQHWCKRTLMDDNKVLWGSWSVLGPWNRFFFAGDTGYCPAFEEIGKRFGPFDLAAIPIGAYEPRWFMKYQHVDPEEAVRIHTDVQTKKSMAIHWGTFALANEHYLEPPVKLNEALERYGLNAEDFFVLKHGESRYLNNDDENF

For orientation: IC50 means the point on the concentration scale where inhibition reaches its midpoint. By Ki is commonly meant a measure of affinity in units of concentration, obtained from inhibition or displacement. For the compound `Oc1c(Cl)cc(Cl)c(Cl)c1Cc1c(O)c(Cl)cc(Cl)c1Cl` [Inh 1, hexachlorophene], the IC50 is 149 µM in assay [1], about 2 µM in assay [2], 9.8 µM in assay [4] and 1.6 µM in assay [5]. In addition, in assay [3], the Ki is about 2 µM.
As to `Oc1c(Cl)cc(Cl)cc1Sc1cc(Cl)cc(Cl)c1O` [Inh 2, bithionol], the IC50 is over 200 µM in assay [1], 10.7 µM in assay [4] and 2.1 µM in assay [5].
Consider `COc1c(O)cc2oc3cc(O)c(CC=C(C)C)c(O)c3c(=O)c2c1CC=C(C)C` [Inh 3, Mangostin], for which, in assay [5], the IC50 turned out to be 2.8 µM.
Still for that read-out and setting: then `O=c1c2ccccc2[se]n1-c1ccccc1` [Inh 4, ebselen], with 2.8 µM; and `CC1=C(O)C(=O)C=C2C1=CC=C1[C@@]2(C)CC[C@@]2(C)[C@@H]3C[C@](C)(C(=O)O)CC[C@]3(C)CC[C@]12C` [Inh 5, Tripterine], with 3 µM; and `Cc1cc2c(C(C)C)c(O)c(O)c(C=O)c2c(O)c1-c1c(C)cc2c(C(C)C)c(O)c(O)c(C=O)c2c1O` [Inh 6, Gossypol], with 6.9 µM.
Consider `CCCCC(=O)O[C@H]1CC[C@H]2[C@@H]3CCc4cc(O)ccc4[C@H]3CC[C@]12C` [Inh 7, estradiol valerate], for which the IC50 in assay [2] came to 7.8 µM.
On to `CC(C)=CCC[C@]1(C)C=Cc2c(O)c3c(c(CC=C(C)C)c2O1)O[C@]12C(=C[C@@H]4C[C@H]1C(C)(C)O[C@@]2(C/C=C(/C)C(=O)O)C4=O)C3=O` [Inh 9, Gambogic acid], for which the IC50 in assay [5] came out at 9.9 µM.
Still for that read-out and setting: under `[H]/N=C(\N/C(=N/[H])NCCCCCCNC(=N)NC(=N)Nc1ccc(Cl)cc1)Nc1ccc(Cl)cc1` [Inh 10, Chlorhexidine] stands 10.4 µM.
In the case of `COc1ccc(C(=O)c2ccccc2O)c(O)c1` [Inh 14, dioxybenzone], the IC50 in assay [5] was 19.1 µM.
For the compound `Clc1cc(Cl)c(Cl)c(Cc2cc(Cl)cc(Cl)c2Cl)c1` [Inh 15, CAS 2888-15-5], in assay [6], the IC50 was over 200 µM.
Take `Oc1ccc(Cl)cc1Cc1cc(Cl)ccc1O` [Inh 17, Dichlorophen]: the IC50 in assay [2] worked out at 23.2 µM.
On the same count and under the same terms, then `Oc1ccc(Cl)cc1Sc1cc(Cl)ccc1O` [Inh 18, Fenticlor], with 26.8 µM.
On to `COc1ccc(Cl)cc1Cc1cc(Cl)ccc1OC` [Inh 19, CAS 7569-57-5], for which the IC50 in assay [6] was over 200 µM.
With `Oc1c(Cl)cc(Cl)cc1Cc1cc(Cl)cc(Cl)c1O` [Inh 21, CAS 1940-43-8], in assay [2], the IC50 was 26.5 µM.
Still for that read-out and setting: then `Oc1c(Br)cc(Cl)cc1Cc1cc(Cl)cc(Br)c1O` [Inh 22, CAS 15435-29-7], with 5 µM.
Still for that read-out and setting: then `Oc1c(Cl)cc(Cl)cc1C(c1cc(Cl)cc(Cl)c1O)C(Cl)(Cl)Cl` [Inh 23, CAS 92167-59-4], with 2.8 µM; and `CC(C)(c1cc(Cl)c(O)c(Cl)c1)c1cc(Cl)c(O)c(Cl)c1` [Inh 24, CAS 79-95-8], with 64.7 µM; and `Oc1cc(Cl)ccc1Oc1ccc(Cl)cc1Cl` [Inh 25, triclosan], with 62.9 µM.
Consider `O=C(Nc1ccc(Cl)cc1)Nc1ccc(Cl)c(Cl)c1` [Inh 26, triclocarban], for which the IC50 in assay [7] is over 200 µM.
